We go through 58 molecules from patent US20090240027A1, “INTERMEDIATES FOR MACROCYCLIC COMPOUNDS” (Tranzyme Pharma Inc., priority 2003, published 2009).

Structures are written as SMILES. pKi: −log10 of the molar value.

The test deals with human motilin receptor (Homo sapiens, UniProt O43193). As to the kind of experiment: Competitive radioligand binding assay (Method B1). Further details: purchased PerkinElmer 6110544; host or cells: CHO cells, stably transfected (membranes). The note with it: for pKi: Radioligand competitive binding assay, Method B1, values reported as ranges, read-out: Ki (binding activity). How it is done:
Competitive Radioligand Binding Assay (Motilin Receptor)
• Membranes were prepared from CHO cells stably transfected with the human motilin receptor and utilized at a quantity of 1.5 μg/assay point.
Final Test Concentrations (N=11) for Compounds:
Compounds were provided frozen on dry ice at a stock concentration of 10 mM diluted in 100% DMSO and stored at −20° C. until the day of testing. On the test day, compounds were allowed to thaw at room temperature and than diluted in assay buffer according to the desired test concentrations. Under these conditions, the maximum final DMSO concentration in the assay was 0.5%.
Plates are sealed with TopSeal-A, vortexed gently and incubated at room temperature for 2 hours. The reaction is arrested by filtering samples through pre-soaked (0.3% polyethyleneimine, 2 h) Multiscreen Harvest plates using a Tomtec® Harvester (Tomtec, Hamden, Conn.)), washed 9 times with 500 μL of cold 50 mM Tris-HCl (pH 7.4), and than plates are air-dried in a fumehood for 30 minutes. A bottom seal is applied to the plates prior to the addition of 25 μL of MicroScint-0™ to each well.
Data are analyzed by GraphPad™ Prism (GraphPad Software, San Diego, Calif.) using a variable slope non-linear regression analysis.
where total and non-specific binding represent the cpm obtained in the absence or presence of 1 μM motilin, respectively.

Chain of human motilin receptor (O43193 whole entry): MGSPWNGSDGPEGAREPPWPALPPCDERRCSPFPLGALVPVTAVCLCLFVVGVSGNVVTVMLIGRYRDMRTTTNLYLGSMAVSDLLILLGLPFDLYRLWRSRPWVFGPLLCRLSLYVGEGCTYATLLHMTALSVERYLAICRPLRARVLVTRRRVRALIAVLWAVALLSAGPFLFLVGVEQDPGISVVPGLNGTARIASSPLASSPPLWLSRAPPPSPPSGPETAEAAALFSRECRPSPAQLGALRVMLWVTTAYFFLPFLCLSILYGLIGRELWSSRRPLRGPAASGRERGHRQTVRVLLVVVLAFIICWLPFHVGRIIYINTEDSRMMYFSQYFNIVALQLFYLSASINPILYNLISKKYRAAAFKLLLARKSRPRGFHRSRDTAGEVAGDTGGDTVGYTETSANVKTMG

Broadly, the pKi is the Ki on a negative log10 scale, so that one unit is a factor of ten. In the case of `CC(C)CC1NC(=O)C(C(C)C)NC(=O)C(Cc2cccs2)NCCOc2ccccc2CCCNC1=O` (stereo not shown) [Compound 130], the negative logarithm of the Ki (pKi) is 6.00 to 7.00.
For `CCCC1NC(=O)C(C(C)C)NC(=O)C(Cc2ccc(O)cc2)NCCOc2cccc(c2)OCCNC1=O` (stereo not shown) [Compound 71], the negative-log Ki (pKi) was 6.00 to 7.00.
As to `CC(C)C1NC(=O)C(Cc2cccs2)NCCOc2ccccc2CCCNC(=O)C(CN)NC1=O` (stereo not shown) [Compound 154], the pKi was 6.00 to 7.00.
On to `CCCC1NC(=O)C(C2CC2)NC(=O)C(Cc2ccc(O)cc2)NCCOc2ccccc2CCCNC1=O` (stereo not shown) [Compound 125], for which the pKi is 6.00 to 7.00.
On the same count and under the same terms, the result for `CCC[C@@H]1NC(=O)[C@@H](C(C)C)NC(=O)[C@@H](Cc2ccc(F)cc2)NCCOc2ccccc2CCCNC1=O` [Compound 19] reads 7.00 to 9.00.
On the same count and under the same terms, the result for `CC(C)C[C@@H]1NC(=O)[C@@H](C(C)C)NC(=O)[C@@H](Cc2ccc(F)cc2)NCCOc2ccccc2CCCNC1=O` [Compound 133] reads 7.00 to 9.00; that for `CCCC1NC(=O)C(CCC)NC(=O)C(Cc2ccc(O)cc2)NCCOc2ccccc2CCCNC1=O` (stereo not shown) [Compound 91], 5.00 to 6.00; that for `CCCC1NC(=O)C(C(C)C)NC(=O)C(Cc2ccccc2OC)NCCOc2ccccc2CCCNC1=O` (stereo not shown) [Compound 166], 6.00 to 7.00.
For `CC(C)[C@H]1NC(=O)[C@@H](Cc2cccc(Cl)c2)NCCOc2ccccc2CCCNC(=O)[C@H](CN)NC1=O` [Compound 155], the pKi is 7.00 to 9.00.
Regarding `CCC[C@@H]1NC(=O)[C@@H](C(C)C)NC(=O)[C@@H](Cc2ccccc2)NCCOc2ccccc2/C=C/CNC1=O` [Compound 2], the negative-log Ki (pKi) was 7.00 to 9.00.
Same read-out and setting: the result for `CCCC1NC(=O)C(C(C)(C)C)NC(=O)C(Cc2ccc(O)cc2)NCCOc2ccccc2CCCNC1=O` (stereo not shown) [Compound 92] reads 6.00 to 7.00; that for `CC(C)C1NC(=O)C(Cc2ccc(O)cc2)NCCOc2ccccc2C=CCNC(=O)C(CO)NC1=O` (stereo not shown) [Compound 57], 6.00 to 7.00; that for `CC(C)C1NC(=O)C(Cc2ccc(O)cc2)NCCOc2ccccc2C=CCNC(=O)C(Cc2c[nH]c3ccccc23)NC1=O` (stereo not shown) [Compound 59], 6.00 to 7.00.
Regarding `CCCC1NC(=O)C(C(C)C)NC(=O)C(Cc2ccccc2C)NCCOc2ccccc2CCCNC1=O` (stereo not shown) [Compound 162], the pKi was 6.00 to 7.00.
On the same count and under the same terms, next, `CCCC1NC(=O)C(C(C)C)NC(=O)C(Cc2cscn2)NCCOc2ccccc2CCCNC1=O` (stereo not shown) [Compound 27]: 6.00 to 7.00; `CC(C)C[C@@H]1NC(=O)[C@@H](C(C)C)NC(=O)[C@@H](Cc2ccc3ccccc3c2)NCCOc2ccccc2/C=C/CNC1=O` [Compound 21]: 7.00 to 9.00.
Same read-out and setting: the result for `CCC[C@@H]1NC(=O)[C@@H](C(C)C)NC(=O)[C@@H](Cc2cccc3ccccc23)NCCOc2ccccc2CCCNC1=O` [Compound 23] reads 7.00 to 9.00; that for `CCCC1NC(=O)C(Cc2ccc(O)cc2)NC(=O)C(Cc2ccc(O)cc2)NCCOc2ccccc2C=CCNC1=O` (stereo not shown) [Compound 34], 6.00 to 7.00; that for `CCCC1NC(=O)C(C(C)C)NC(=O)C(Cc2ccc(CN)cc2)NCCOc2ccccc2CCCNC1=O` (stereo not shown) [Compound 161], 6.00 to 7.00.
On the same count and under the same terms, next, `CC(C)[C@H]1NC(=O)[C@@H](Cc2cccc(Cl)c2)NCCOc2cccnc2CCCNC(=O)[C@H](CN)NC1=O` [Compound 158]: 7.00 to 9.00; `CCCC1NC(=O)C(C(C)C)NC(=O)C(Cc2ccc(O)cc2)NCCOc2cccnc2CCCNC1=O` (stereo not shown) [Compound 110]: 6.00 to 7.00.
With `CC(C)C1NC(=O)C(Cc2ccc(O)cc2)NCCOc2ccccc2C=CCNC(=O)C(C(C)C)NC1=O` (stereo not shown) [Compound 9], the pKi is 6.00 to 7.00.
In the case of `CCCC1NC(=O)C(C(C)C)NC(=O)C(Cc2ccc(O)cc2)NCCN(C)CCNC1=O` (stereo not shown) [Compound 99], the pKi is 5.00 to 6.00.
The same measure, in the same setting: the result for `CCCC1NC(=O)C(C(C)C)NC(=O)C(Cc2ccc(O)cc2)NCCCNCCNC1=O` (stereo not shown) [Compound 98] reads 5.00 to 6.00; that for `COc1ccc(C[C@H]2NCCOc3ccccc3CCCNC(=O)[C@H](CC(C)C)NC(=O)[C@@H](C(C)C)NC2=O)cc1` [Compound 128], 6.00 to 7.00; that for `CCCC1NC(=O)C(C(C)C)NC(=O)C(Cc2ccc(OC(C)(C)C)cc2)NCCOc2ccccc2CCCNC1=O` (stereo not shown) [Compound 88], 5.00 to 6.00.
With `CCCC1NC(=O)C(C(C)C)NC(=O)C(Cc2ccccn2)NCCOc2ccccc2CCCNC1=O` (stereo not shown) [Compound 123], the pKi was 6.00 to 7.00.
The same measure, in the same setting: the result for `CCCC1NC(=O)C(C2CCCCC2)NC(=O)C(Cc2ccc(O)cc2)NCCOc2ccccc2CCCNC1=O` (stereo not shown) [Compound 97] reads 5.00 to 6.00.
For the molecule `CC(C)CC1NC(=O)C(C(C)C)NC(=O)C(Cc2cccc3ccccc23)NCCOc2cccnc2CCCNC1=O` (stereo not shown) [Compound 136], the pKi is 6.00 to 7.00.
Take `CCCC1NC(=O)C(C(C)C)NC(=O)C(Cc2ccccc2Cl)NCCOc2ccccc2CCCNC1=O` (stereo not shown) [Compound 25]: the pKi was 6.00 to 7.00.
The same measure, in the same setting: the result for `CC1NC(=O)C(C(C)C)NC(=O)C(Cc2ccc(O)cc2)NCCOc2ccccc2C=CCNC1=O` (stereo not shown) [Compound 38] reads 5.00 to 6.00; that for `CCCC1NC(=O)C(C(C)C)NC(=O)C(Cc2ccc(O)cc2)NCCOc2ccccc2CCNC1=O` (stereo not shown) [Compound 177], 6.00 to 7.00.
On to `CC(C)C[C@@H]1NC(=O)[C@@H](C(C)C)NC(=O)[C@@H](Cc2ccc(Cl)cc2)NCCOc2ccccc2CCCNC1=O` [Compound 132], for which the pKi was 7.00 to 9.00.
Same read-out and setting: the result for `CCC[C@@H]1NC(=O)[C@@H](C(C)C)NC(=O)[C@@H](Cc2ccc(F)c(F)c2)NCCOc2ccccc2CCCNC1=O` [Compound 171] reads 7.00 to 9.00; that for `CCCC1NC(=O)C(C(C)C)NC(=O)CC(Cc2cccc(Cl)c2)NCCOc2ccccc2CCCNC1=O` (stereo not shown) [Compound 169], 6.00 to 7.00; that for `COc1ccc(CC2NCCOc3ccccc3CCCNC(=O)C(CO)NC(=O)C(C(C)C)NC2=O)cc1` (stereo not shown) [Compound 178], 6.00 to 7.00.
As to `CC(C)C1NC(=O)C(Cc2ccc(O)cc2)NCCOc2ccccc2C=CCNC(=O)C(Cc2ccc(O)cc2)NC1=O` (stereo not shown) [Compound 58], the pKi is 6.00 to 7.00.
As for `CCC1NC(=O)C(C(C)C)NC(=O)C(Cc2ccc(O)cc2)NCCOc2ccccc2C=CCNC1=O` (stereo not shown) [Compound 12], the pKi is 6.00 to 7.00.
Same read-out and setting: next, `CC(C)C[C@@H]1NC(=O)[C@@H](C(C)C)NC(=O)[C@@H](Cc2ccc(O)cc2)NCCOc2ccccc2/C=C/CNC1=O` [Compound 10]: 7.00 to 9.00.
Still for that read-out and setting: next, `CC(C)CC1NC(=O)C(C(C)C)NC(=O)C(Cc2cccs2)NCCOc2cccnc2CCCNC1=O` (stereo not shown) [Compound 137]: 6.00 to 7.00.
For the molecule `CCCC1NC(=O)C(Cc2ccc3ccccc3c2)NC(=O)C(Cc2ccc(O)cc2)NCCOc2ccccc2C=CCNC1=O` (stereo not shown) [Compound 76], the negative logarithm of the Ki (pKi) is 5.00 to 6.00.
With `CCCC1NC(=O)C(CC)NC(=O)C(Cc2ccc(O)cc2)NCCOc2ccccc2CCCNC1=O` (stereo not shown) [Compound 18], the pKi is 6.00 to 7.00.
On the same count and under the same terms, the result for `CCCC1NC(=O)CCNC(=O)C(Cc2ccc(O)cc2)NCCOc2ccccc2CCCNC1=O` (stereo not shown) [Compound 96] reads 5.00 to 6.00; that for `CCCC1NC(=O)C(C(C)C)NC(=O)C(Cc2c[nH]cn2)NCc2ccccc2Sc2ccccc2CNC1=O` (stereo not shown) [Compound 127], 6.00 to 7.00; that for `CCCC1NC(=O)C(C(C)C)NC(=O)C(Cc2ccc(-c3ccccc3)cc2)NCCOc2ccccc2CCCNC1=O` (stereo not shown) [Compound 87], 6.00 to 7.00.
Same read-out and setting: next, `CCCC1NC(=O)C(C(C)C)NC(=O)C(CCc2ccccc2)NCCOc2ccccc2CCCNC1=O` (stereo not shown) [Compound 89]: 5.00 to 6.00; `CC(C)C1NC(=O)C(Cc2ccc(O)cc2)NCCOc2ccccc2CCCNC(=O)C(CCN)NC1=O` (stereo not shown) [Compound 109]: 6.00 to 7.00.
Turning to `CCC[C@H](NC(=O)[C@H](NC(=O)[C@@H](Cc1ccc(O)cc1)NCCOc1ccccc1/C=C/CNC(C)=O)C(C)C)C(N)=O` [Compound 121], for the setting “result in words, linear analogue of compound 1”, the Binding activity entry is recorded as “lack of binding activity”.
Turning to `CC(C)CC1NC(=O)C(C(C)C)NC(=O)C(Cc2ccc(F)cc2)NCCOc2cccnc2CCCNC1=O` (stereo not shown) [Compound 140], the negative-log Ki (pKi) was 6.00 to 7.00.
Still for that read-out and setting: next, `CCCC1NC(=O)C(C(C)C)NC(=O)C(Cc2ccncc2)NCCOc2ccccc2CCCNC1=O` (stereo not shown) [Compound 124]: 6.00 to 7.00; `CCC[C@@H]1NC(=O)[C@@H](C(C)C)NC(=O)[C@@H](Cc2ccc(Cl)c(Cl)c2)NCCOc2ccccc2CCCNC1=O` [Compound 170]: 7.00 to 9.00; `CC(C)[C@H]1NC(=O)[C@@H](Cc2ccc(Cl)cc2)NCCOc2ccccc2CCCNC(=O)[C@H](CC2CC2)NC1=O` [Compound 145]: 7.00 to 9.00.
On to `CCC[C@@H]1NC(=O)[C@@H](C(C)C)NC(=O)[C@@H](Cc2c[nH]c3ccccc23)NCCOc2ccccc2CCCNC1=O` [Compound 17], for which the pKi was 6.00 to 7.00.
With `CCCC1NC(=O)C(C(C)CC)NC(=O)C(Cc2ccc(O)cc2)NCCOc2ccccc2CCCNC1=O` (stereo not shown) [Compound 159], the pKi was 6.00 to 7.00.
In the case of `CC(C)C1NC(=O)C(Cc2ccc(O)cc2)NCCOc2ccccc2C=CCNC(=O)CNC1=O` (stereo not shown) [Compound 40], the negative-log Ki (pKi) is 5.00 to 6.00.
On the same count and under the same terms, the result for `CC(C)C1NC(=O)C(Cc2ccc(O)cc2)NCCOc2ccccc2C=CCNC(=O)C(Cc2ccc3ccccc3c2)NC1=O` (stereo not shown) [Compound 72] reads 6.00 to 7.00.
Take `CCCC1NC(=O)C(C(C)CC)NC(=O)C(Cc2ccc(O)cc2)NCCOc2ccccc2CCCNC1=O` (stereo not shown) [Compound 160]: the negative logarithm of the Ki (pKi) is 6.00 to 7.00.
Same read-out and setting: next, `CCCC1NC(=O)C(C)NC(=O)C(Cc2ccc(O)cc2)NCCOc2ccccc2C=CCNC1=O` (stereo not shown) [Compound 5]: 6.00 to 7.00.
